Measured values published in US5763430A, “Method of treating a viral infection by administering a steroid compound” (priority 1995, dated 1998).

Tests used:
human lymphocytes = assay: inhibition of mitogen (PHA)-stimulated growth of human T-cells; conditions: Homo sapiens, Lymphocyte, read-out: inhibition of blast transformation
Experimental: Specific assays were used to identify steroids with a particular biological activity, such as an assay for inhibition of mitogen-stimulated growth of human T-cells.
Human heparinized blood, freshly collected, was introduced into tissue culture flasks containing 10 μg/ml phytohaemagglutinin (PHA) in RPMI medium with 10% FCS. Various purified steroids were introduced subsequently at concentrations of 1, 5, and 10 μg/ml. Cultures were incubated for 72 hours, after which time colcemid was added to 1 μg/ml. Cultures were maintained for an additional 2 hours, and cells collected. Miotic figures were estimated using standard cytochemical techniques, following Giemsa staining.

Human melanoma WM 1617 = assay: growth inhibition in vitro; format: cell-based; conditions: WM 1617, 10 μg/ml
Text: (§1) As set forth in Table 7 below, all malignant tumors evaluated in tissue culture, endothelial cells and vascular smooth muscle cells were sensitive to inhibition. Thus, compound 1436 has application in the control of growth factor dependent proliferation of many types of tissue.

[1] = system: human umbilical venous endothelial cells; assay: growth inhibition in vitro; format: cell-based; conditions: 10 μg/ml
Text: as §1

Murine L1210 leukemia = assay: growth inhibition in vitro; format: cell-based; conditions: 10 μg/ml
Text: as §1

[2] = system: Human coronary artery smooth muscle cells; assay: growth inhibition in vitro; format: cell-based; conditions: 10 μg/ml
Text: as §1

Lewis lung carcinoma = assay: growth inhibition in vitro; format: cell-based; conditions: 10 μg/ml
Text: as §1

Murine B16 melanoma = assay: growth inhibition in vitro; format: cell-based; conditions: Murine B16 melanoma, 10 μg/ml
Text: as §1

[3] = system: bovine pulmonary endothelial cells; assay: growth inhibition in vitro; format: cell-based; conditions: 10 μg/ml
Text: as §1

[4] = system: Human colon carcinoma SW948; assay: growth inhibition in vitro; format: cell-based; conditions: SW948, 10 μg/ml
Text: as §1

[5] = system: Human microvascular endothelial cells; assay: growth inhibition in vitro; format: cell-based; conditions: 10 μg/ml
Text: as §1

[6] = system: Human colon carcinoma HT29; assay: growth inhibition in vitro; format: cell-based; conditions: HT29, 10 μg/ml
Text: as §1

human melanoma = assay: effect on growth of human melanoma over time / mode of cell death; format: cell-based
[7] = viability of lymphocytes in HIV test; format: cell-based; conditions: human
Text: (§2) Results are tabulated below.

rabbit NHE3 = rabbit NHE3 (Oryctolagus cuniculus, UniProt P26432); conditions: 10 μg/ml, acid preloaded 40 mM NH4Cl, FIG. 10
rabbit NHE3, sequence (P26432 30-832): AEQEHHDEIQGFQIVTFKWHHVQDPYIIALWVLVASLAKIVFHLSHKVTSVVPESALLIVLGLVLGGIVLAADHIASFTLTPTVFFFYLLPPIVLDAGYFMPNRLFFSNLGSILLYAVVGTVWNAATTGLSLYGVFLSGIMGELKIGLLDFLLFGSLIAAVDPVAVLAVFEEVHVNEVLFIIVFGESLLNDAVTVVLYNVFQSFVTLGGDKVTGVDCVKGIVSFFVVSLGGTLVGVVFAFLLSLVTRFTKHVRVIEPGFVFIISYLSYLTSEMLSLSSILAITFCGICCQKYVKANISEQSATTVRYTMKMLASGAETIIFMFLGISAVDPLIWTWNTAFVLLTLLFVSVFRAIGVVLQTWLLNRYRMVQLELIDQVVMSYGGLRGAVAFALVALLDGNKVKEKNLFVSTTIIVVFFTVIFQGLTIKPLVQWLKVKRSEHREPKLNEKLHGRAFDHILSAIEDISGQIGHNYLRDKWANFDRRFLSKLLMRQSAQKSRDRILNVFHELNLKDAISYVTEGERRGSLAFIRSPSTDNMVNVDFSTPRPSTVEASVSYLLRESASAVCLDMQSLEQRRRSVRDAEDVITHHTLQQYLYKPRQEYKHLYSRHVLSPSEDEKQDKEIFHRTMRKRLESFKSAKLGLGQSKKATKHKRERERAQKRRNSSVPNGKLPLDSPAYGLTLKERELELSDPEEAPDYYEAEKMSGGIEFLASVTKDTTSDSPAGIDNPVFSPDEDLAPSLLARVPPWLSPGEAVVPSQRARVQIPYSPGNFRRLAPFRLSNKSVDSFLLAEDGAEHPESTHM
Experimental: Internal pH was measured either following acid loading or in the absence of an acid-loading challenge, with the results shown in FIGS. 1A and 1B.
Specifically, PS120 fibroblasts transfected with rabbit NHE3 were grown in supplemented Dulbecco's-modified Eagle's medium as described by Levine et al., J. Biol. Chem. 268, 1993, 25527-25535. […] For cells not acid-preloaded, the actual internal pH value was monitored as a function of time following addition of squalamine, with the results depicted in FIG. 1B.
PS120 fibroblasts transfected with rabbit NHE3 were grown and acid preloaded by exposure to 40 mM NH4 Cl as described above in conjunction with FIGS. 1A and 1B. Internal cellular pH changes expressed as the rate of pH recovery as a function of restored extracellular sodium ion concentration following exposure to 10 μg/ml of the compound were assayed with the fluorescent dye BCECF-AM as described above.

[8] = system: chick embryo vitelline capillaries; assay: chick embryo vitelline capillary regression assay; format: in vivo
Experimental: Using the chick embryo vitelline capillaries assay, compounds were tested for their ability to induce capillary regression. Each compound was applied in 0.1 ml of 15% Ficol 400 and PBS onto the embryo, and vascular regression was assessed after 60 minutes.
The 3-day chick embryo consists of an embryonic disc from which numerous vessels emerge and return, forming a "FIG. 8"-shaped structure--the embryo in the center with vascular loops extending outward over both poles. […] Following a lag period of around 15 minutes, the constriction of continuity between capillary and secondary vessels, generally on the "venous" side, was observed. Continued pulsatile blood flow progressed, resulting in a "swelling" of the blind tube, followed by a pinching off of the remaining connection and formation of an enclosed vascular sac resembling a "blood island." This process progressed until only the largest vessels remained intact.

[9] = effect on arterial resistance in the rat; format: in vivo; conditions: 5 mg/kg i.v.
Experimental: A 200-g rat was catheterized in the right carotid artery, and the compound was introduced over a ten-second period to a total dosage of 5 mg/kg. Within 30 seconds, the mean arterial pressure had fallen from about 100 mm Hg to about 70 mm Hg, with a marked reduction in pulse pressure from about 40 mm to about 10 mm. […] If cardiac output was basically unaffected, reduction in blood pressure would have resulted principally from a reduction in system resistance.
At that time, 40 μg of noradrenaline was introduced.

[10] = system: Human ovarian carcinoma SKOV3; assay: growth inhibition in vitro; format: cell-based; conditions: SKOV3, 10 μg/ml
Experimental: as §1
Using the assay described above, the anticancer effects of compound 1437 against several cancer lines was assessed.

[11] = system: L1210 lymphoblastic leukemia cells; assay: mouse model of leukemia; format: in vivo; conditions: highest dose (10 mg/kg every 3 days ip), FIG. 11
Text: C57B mice were inoculated with L1210 lymphoblastic leukemia cells at an inoculum that causes leukemia in 100% of animals.

[12] = effect on growth and weight gain of growing mice; format: in vivo, mouse (C57B)
Experimental: Animals were dosed QTD (i.p.) starting on Day 1. […] Animals receiving 5 mg/kg QTD experienced about a 50% reduction in growth, compared to untreated controls, while animals receiving 1 mg/kg QTD were affected by about 10%. […] They appeared very much like hypophysectamized animals might appear.

[13] = system: heart of a juvenile Xenopus laevis frog; assay: persistence of beating of isolated frog heart; conditions: 10 μg/ml
Experimental: To determine if compound 1436 has such utility, the following experiment was performed. The heart of a juvenile Xenopus laevis frog was dissected from the living animal. The heart was placed into a Petri dish containing Krebs-Ringer buffer with adrenaline 50 μg/ml, and examined with the naked eye. At room temperature, the heart continued beating in a coordinated fashion (atrial beat followed by ventricular beat) for about one hour. In the presence of 10 μg/ml of compound 1436, spontaneous beating persisted up to 24 hours.

[14] = system: stage 59-60 Xenopus tadpole; assay: Xenopus tadpole assay; conditions: 10 μg/ml
B16 melanoma = assay: suppression of growth of B16 melanoma in C57B mice; format: in vivo, mouse; conditions: 10 mg/kg every 3 days alone, FIG. 12
Experimental: The growth of B16 melanoma in C57B mice is dependent upon neovascularization.
Using the growth of B16 melanoma cells in C57B mice, a recognized model for the evaluation of inhibitors of angiogenesis on the growth of cancers, the effects of subcutaneous, intraperitoneal and oral administration of squalamine were evaluated.
Based on the idea that tumor growth involves both the clonal expansion of a malignant cell along with the development of a supporting vascular supply, a combination of compound 1436 with squalamine was tested to determine whether it would achieve a synergistic effect on solid tumor growth. This concept was evaluated in the B16 melanoma model.
Animals were implanted with B16 melanoma followed by treatment with compound 1436 or 1256 administered in a combined schedule or separately. […] Thus, a combination of these two compounds achieves a therapeutic benefit in tumors dependent on neovascularization that may prevent metastatic spread.

[15] = system: stage 59-60 Xenopus tadpole; conditions: 10 μg/mL, Table II
[16] = effect on fasting blood glucose in mice; format: in vivo, mouse (male CD-1); conditions: i.v.
Experimental: To study the effect of steroid administrator or the NHE responsible for secretion of insulin, several of the aminosterols from shark liver were administered to fasting mice. Male CD-1 mice were assigned to one of four treatment groups. Whole blood glucose was tested using glucometer (Lifescan Glucometer II and One Touch test strips). Statistical analysis was via one-way analysis of variance (ANOVA) followed by subsequent Bonferonni's t-test.

HIV clinical isolate = assay: inhibition of HIV replication in PHA-stimulated lymphocytes (HIV P-24 antigen Elisa); format: cell-based; conditions: 20 μM
Text: as §2

[17] = system: human coronary artery smooth muscle; assay: proliferation of human coronary artery smooth muscle in vitro; format: cell-based; conditions: FIG. 15
Text: Aminosterols of the invention may also have utility in inhibiting the growth factor mediated proliferation of smooth muscle within the artery. Following coronary angioplasty, reocclusion commonly occurs, secondary to reparative proliferation of the vascular smooth muscle within the wall of the surgically manipulated blood vessel. This process generally takes place over the course of 7-10 days. To evaluate whether an agent could prevent the growth factor mediated proliferation of smooth muscle within the artery, compound 1436 was evaluated in vitro for its effect on the proliferation of human coronary artery smooth muscle. Results for compound 1436 are shown in FIG. 13, and those for squalamine are shown in FIG. 14, with FIG. 15 being a composite logarithmic plot.

Structure (SMILES): CC(C)[C@@H](CC[C@@H](C)[C@H]1CC[C@H]2[C@@H]3[C@H](O)C[C@H]4C[C@@H](NCCCNCCCCNCCCN)CC[C@]4(C)[C@H]3CC[C@]12C)OS(=O)(=O)O [Compound 1436]
- inhibition at 10 µg/mL (human lymphocytes): > 75%
- cancer cells inhibited in vitro (Human melanoma WM 1617): INHIBITED
- non-transformed cells inhibited in vitro [1]: INHIBITED
- cancer cells inhibited in vitro (Murine L1210 leukemia): INHIBITED
- non-transformed cells inhibited in vitro [2]: INHIBITED
- cancer cells inhibited in vitro (Lewis lung carcinoma): INHIBITED
- cancer cells inhibited in vitro (Murine B16 melanoma): INHIBITED
- non-transformed cells inhibited in vitro [3]: INHIBITED
- cancer cells inhibited in vitro [4]: INHIBITED
- non-transformed cells inhibited in vitro [5]: INHIBITED
- cancer cells inhibited in vitro [6]: INHIBITED
- mode of cell death (human melanoma): same highly selective mechanism of killing
- viability at 168 h, 0.5 µM ([7]; 0.5 μM): 91%
- viability at 168 h, 10 µM ([7]; 10 μM): 95%
- viability at 168 h ([7]; 10 μg/ml, read-out: lymphocyte viability): 95%
- viability at 168 h, 20 µM ([7]; 20 μM): 90.1%
- inhibition of rabbit NHE3 (rate of pH recovery) (rabbit NHE3): inhibit rabbit NHE3
- vitelline capillary regression, potency in words [8]: about the same potency as squalamine
- duration of effect followed without significant change [9]: 30 min
- heart rate [9]: no significant increase in heart rate
- cancer cells inhibited in vitro [10]: INHIBITED
- survival of mice bearing L1210 leukemia [11]: significant prolongation of life
- reduction in growth ([12]; 1 mg/kg QTD i.p.): about 10%
- suppression of growth of mice ([12]; 10 mg/kg QTD i.p., after 6 doses, about 1 month): growth was almost completely inhibited
- apparent health of treated animals ([12]; mouse, in vivo): all were active, normally proportioned, not-cachectic, and in excellent apparent clinical health
- atrial pacemaker and conduction [13]: remained vigorous
- time to death of tadpole [14]: about 2 hours
- tadpole response ([14]; about 1 hour): Gradual reduction in overall activity. Heart beat remained strong, suggesting nervous system depression. Melanocytes over head and tail began to swell, first exhibiting visibly distinct nuclei, followed by rupture into fragments
- impact on tumor volume (B16 melanoma): no significant impact on tumor volume
- Tadpole M (merarocytes) [15]: +
- hyperglycemia [16]: caused hyperglycemia in mice
- P-24 Elisa (HIV clinical isolate): 9
- growth of human coronary artery smooth muscle [17]: suppress in vitro the growth
